The record followed here is patent US8299077B2 (Roche Palo Alto LLC, priority 2009, dated 2012).

This test deals with B cell receptor-mediated activation of B cells in human blood (CD69 expression). Nature of the test: Inhibition of B cell activation in whole blood measured by CD69 expression. Type of test: cell-based. The following applies: anti-IgM stimulation, 20 h, 50% decrease of CD69-positive cells that are also CD20-positive. Summed up: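 Healthy-donor human whole blood (heparin) preincubated with compound (nine-point, three-fold dilutions) for 30 min at 37 °C, then stimulated with goat F(ab′)2 anti-human IgM (50 μg/ml final) for 20 h. CD69-positive B cells (CD20 gating) measured by flow cytometry as percent positive; IC50 from dose-response fit.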
Compound `Cn1cc(-c2cccc(-n3ccc4cc(C(C)(C)C)cc(F)c4c3=O)c2CO)cc(Nc2ccc(C(=O)N3CCOCC3)cn2)c1=O` [Example I-63, 6-tert-Butyl-8-fluoro-2-(2-hydroxymethyl-3-{1-methyl-5-[5-(morpholine-4-carbonyl)-pyridin-2-ylamino]-6-oxo-1,6-dihydro-pyridin-3-yl}-phenyl)-2H-isoquinolin-1-one] gave an IC50 of 16 nM.

Regarding `CCC(O)(CC)c1cc(F)c2c(=O)n(-c3cccc(-c4cc(Nc5ccc(N6CCC(C)(O)CC6)cn5)c(=O)n(C)c4)c3CO)ccc2c1` [Example I-64, 6-(1-Ethyl-1-hydroxy-propyl)-8-fluoro-2-{2-hydroxymethyl-3-[5-(4-hydroxy-4-methyl-3,4,5,6-tetrahydro-2H-[1,3′]bipyridinyl-6′-ylamino)-1-methyl-6-oxo-1,6-dihydro-pyridin-3-yl]-phenyl}-2H-isoquinolin-1-one], the IC50 was found to be 27 nM. As for `Cn1cc(-c2cccc(-n3ccc4cc(C(C)(C)C#N)cc(F)c4c3=O)c2CO)cc(Nc2ccc(OCCO)cn2)c1=O` [Example I-65, 2-[8-Fluoro-2-(3-{5-[5-(2-hydroxy-ethoxy)-pyridin-2-ylamino]-1-methyl-6-oxo-1,6-dihydro-pyridin-3-yl}-2-hydroxymethyl-phenyl)-1-oxo-1,2-dihydro-isoquinolin-6-yl]-2-methyl-propionitrile], the figure is 19 nM; as for `Cn1cc(-c2cccc(-n3ccc4cc(C5CC5)cc(F)c4c3=O)c2CO)cc(Nc2ccc(C(C)(C)C(=O)O)cn2)c1=O` [Example I-68, 2-(6-{5-[3-(6-Cyclopropyl-8-fluoro-1-oxo-1H-isoquinolin-2-yl)-2-hydroxymethyl-phenyl]-1-methyl-2-oxo-1,2-dihydro-pyridin-3-ylamino}-pyridin-3-yl)-2-methyl-propionic acid], 213 nM; as for `CNC(=O)C(C)(C)c1ccc(Nc2cc(-c3cccc(-n4ccc5cc(C6CC6)cc(F)c5c4=O)c3CO)cn(C)c2=O)nc1` [Example I-69, 2-(6-{5-[3-(6-Cyclopropyl-8-fluoro-1-oxo-1H-isoquinolin-2-yl)-2-hydroxymethyl-phenyl]-1-methyl-2-oxo-1,2-dihydro-pyridin-3-ylamino}-pyridin-3-yl)-N-methyl-isobutyramide], 33 nM. Turning to `CN(C)C(=O)C(C)(C)c1ccc(Nc2cc(-c3cccc(-n4ccc5cc(C6CC6)cc(F)c5c4=O)c3CO)cn(C)c2=O)nc1` [Example I-70, 2-(6-{5-[3-(6-Cyclopropyl-8-fluoro-1-oxo-1H-isoquinolin-2-yl)-2-hydroxymethyl-phenyl]-1-methyl-2-oxo-1,2-dihydro-pyridin-3-ylamino}-pyridin-3-yl)-N,N-dimethyl-isobutyramide], the IC50 came to 22 nM. Against the preceding compound, the IC50 is about 1.5-fold lower. The figure for `CN1CC(Oc2ccc(Nc3cc(-c4cccc(-n5ccc6cc(C7CC7)cc(F)c6c5=O)c4CO)cn(C)c3=O)nc2)C1` [Example I-71, 6-Cyclopropyl-8-fluoro-2-(2-hydroxymethyl-3-{1-methyl-5-[5-(1-methyl-azetidin-3-yloxy)-pyridin-2-ylamino]-6-oxo-1,6-dihydro-pyridin-3-yl}-phenyl)-2H-isoquinolin-1-one] is 39 nM. The figure for `Cn1cc(-c2cccc(-n3ccc4cc(C5CC5)cc(F)c4c3=O)c2CO)cc(Nc2ccc(C(C)(C)O)cn2)c1=O` [Example I-72, 6-Cyclopropyl-8-fluoro-2-(2-hydroxymethyl-3-{5-[5-(1-hydroxy-1-methyl-ethyl)-pyridin-2-ylamino]-1-methyl-6-oxo-1,6-dihydro-pyridin-3-yl}-phenyl)-2H-isoquinolin-1-one] is 20 nM; for `CN1CCN(Cc2ccc(Nc3cc(-c4cccc(-n5ccc6cc(C7CC7)cc(F)c6c5=O)c4CO)cn(C)c3=O)nc2)CC1` [Example I-73, 6-Cyclopropyl-8-fluoro-2-(2-hydroxymethyl-3-{1-methyl-5-[5-(4-methyl-piperazin-1-ylmethyl)-pyridin-2-ylamino]-6-oxo-1,6-dihydro-pyridin-3-yl}-phenyl)-2H-isoquinolin-1-one] it is 24 nM. As for `CC(O)c1ccc(Nc2cc(-c3cccc(-n4ccc5cc(C6CC6)cc(F)c5c4=O)c3CO)cn(C)c2=O)nc1` (centres unmarked) [Example I-74, 6-Cyclopropyl-8-fluoro-2-(3-{5-[5-(1-hydroxy-ethyl)-pyridin-2-ylamino]-1-methyl-6-oxo-1,6-dihydro-pyridin-3-yl}-2-hydroxymethyl-phenyl)-2H-isoquinolin-1-one], the figure is 29 nM. In the case of `COCCNCc1ccc(Nc2cc(-c3cccc(-n4ccc5cc(C6CC6)cc(F)c5c4=O)c3CO)cn(C)c2=O)nc1` [Example I-75, 6-Cyclopropyl-8-fluoro-2-[2-hydroxymethyl-3-(5-{5-[(2-methoxy-ethylamino)-methyl]-pyridin-2-ylamino}-1-methyl-6-oxo-1,6-dihydro-pyridin-3-yl)-phenyl]-2H-isoquinolin-1-one], half-maximal inhibition (IC50) required 37 nM. The figure for `Cn1cc(-c2cccc(-n3ccc4cc(C5CC5)cc(F)c4c3=O)c2CO)cc(Nc2ccc(C(C)(C)N)cn2)c1=O` [Example I-76, 2-(3-{5-[5-(1-Amino-1-methyl-ethyl)-pyridin-2-ylamino]-1-methyl-6-oxo-1,6-dihydro-pyridin-3-yl}-2-hydroxymethyl-phenyl)-6-cyclopropyl-8-fluoro-2H-isoquinolin-1-one] is 40 nM. As for `CCNCc1ccc(Nc2cc(-c3cccc(-n4ccc5cc(C6CC6)cc(F)c5c4=O)c3CO)cn(C)c2=O)nc1` [Example I-77, 6-Cyclopropyl-2-{3-[5-(5-ethylaminomethyl-pyridin-2-ylamino)-1-methyl-6-oxo-1,6-dihydro-pyridin-3-yl]-2-hydroxymethyl-phenyl}-8-fluoro-2H-isoquinolin-1-one], the figure is 20 nM. `CC(C)NCc1ccc(Nc2cc(-c3cccc(-n4ccc5cc(C6CC6)cc(F)c5c4=O)c3CO)cn(C)c2=O)nc1` [Example I-78, 6-Cyclopropyl-8-fluoro-2-(2-hydroxymethyl-3-{5-[5-(isopropylamino-methyl)-pyridin-2-ylamino]-1-methyl-6-oxo-1,6-dihydro-pyridin-3-yl}-phenyl)-2H-isoquinolin-1-one] registered an IC50 of 20 nM. For the compound `Cn1cc(-c2cccc(-n3ccc4cc(C5CC5)cc(F)c4c3=O)c2CO)cc(Nc2ccc(OCCO)cn2)c1=O` [Example I-79, 6-Cyclopropyl-8-fluoro-2-(3-{5-[5-(2-hydroxy-ethoxy)-pyridin-2-ylamino]-1-methyl-6-oxo-1,6-dihydro-pyridin-3-yl}-2-hydroxymethyl-phenyl)-2H-isoquinolin-1-one], the IC50 stood at 93 nM. As for `Cn1cc(-c2cccc(-n3ccc4cc(C(C)(C)O)cc(F)c4c3=O)c2CO)nc(Nc2cnn(CC(F)F)c2)c1=O` [Example I-80, 2-(3-{6-[1-(2,2-Difluoro-ethyl)-1H-pyrazol-4-ylamino]-4-methyl-5-oxo-4,5-dihydro-pyrazin-2-yl}-2-hydroxymethyl-phenyl)-8-fluoro-6-(1-hydroxy-1-methyl-ethyl)-2H-isoquinolin-1-one], half-maximal inhibition (IC50) required 31 nM. `CCn1cc(Nc2nc(-c3cccc(-n4ccc5cc(C(C)(C)O)cc(F)c5c4=O)c3CO)cn(C)c2=O)cn1` [Example I-81, 2-{3-[6-(1-Ethyl-1H-pyrazol-4-ylamino)-4-methyl-5-oxo-4,5-dihydro-pyrazin-2-yl]-2-hydroxymethyl-phenyl}-8-fluoro-6-(1-hydroxy-1-methyl-ethyl)-2H-isoquinolin-1-one] returned an IC50 of 13 nM. As for `CC(O)Cn1cc(Nc2nc(-c3cccc(-n4ccc5cc(C6CC6)cc(F)c5c4=O)c3CO)cn(C)c2=O)cn1` (centres unmarked) [Example I-82, 6-Cyclopropyl-8-fluoro-2-(2-hydroxymethyl-3-{6-[1-(2-hydroxy-propyl)-1H-pyrazol-4-ylamino]-4-methyl-5-oxo-4,5-dihydro-pyrazin-2-yl}-phenyl)-2H-isoquinolin-1-one], the figure is 57 nM. The figure for `CC(O)Cn1cc(Nc2nc(-c3cccc(-n4ncc5cc(C(C)(C)C)cc(F)c5c4=O)c3CO)cn(C)c2=O)cn1` (centres unmarked) [Example I-83, 6-tert-Butyl-8-fluoro-2-(2-hydroxymethyl-3-{6-[1-(2-hydroxy-propyl)-1H-pyrazol-4-ylamino]-4-methyl-5-oxo-4,5-dihydro-pyrazin-2-yl}-phenyl)-2H-phthalazin-1-one] is 10 nM; for `Cn1cc(-c2cccc(-n3ncc4cc(C(C)(C)C)cc(F)c4c3=O)c2CO)nc(Nc2cnn(CC(F)F)c2)c1=O` [Example I-84, 6-tert-Butyl-2-(3-{6-[1-(2,2-difluoro-ethyl)-1H-pyrazol-4-ylamino]-4-methyl-5-oxo-4,5-dihydro-pyrazin-2-yl}-2-hydroxymethyl-phenyl)-8-fluoro-2H-phthalazin-1-one] it is 20 nM.

`Cn1cc(-c2cccc(-n3ncc4cc(C(C)(C)C)cc(F)c4c3=O)c2CO)cc(Nc2ccc(CN3CCC(N)C3)cn2)c1=O` (centres unmarked) [Example I-86, 2-(3-{5-[5-(3-Amino-pyrrolidin-1-ylmethyl)-pyridin-2-ylamino]-1-methyl-6-oxo-1,6-dihydro-pyridin-3-yl}-2-hydroxymethyl-phenyl)-6-tert-butyl-8-fluoro-2H-phthalazin-1-one] registered an IC50 of 101 nM. This IC50 lies about 5-fold higher than the previous one. As for `Cn1cc(-c2cccc(-n3ncc4cc(C(C)(C)C)cc(F)c4c3=O)c2CO)cc(Nc2ccc(N3C[C@H]4CC[C@@H](C3)N4)cn2)c1=O` [Example I-87, 6-tert-Butyl-2-(3-{5-[(1S,5R)-5-(3,8-diaza-bicyclo[3.2.1]oct-3-yl)-pyridin-2-ylamino]-1-methyl-6-oxo-1,6-dihydro-pyridin-3-yl}-2-hydroxymethyl-phenyl)-8-fluoro-2H-phthalazin-1-one], the figure is 24 nM; as for `CNCCOc1ccc(Nc2cc(-c3cccc(-n4ncc5cc(C(C)(C)C)cc(F)c5c4=O)c3CO)cn(C)c2=O)nc1` [Example I-88, 6-tert-Butyl-8-fluoro-2-(2-hydroxymethyl-3-{1-methyl-5-[5-(2-methylamino-ethoxy)-pyridin-2-ylamino]-6-oxo-1,6-dihydro-pyridin-3-yl}-phenyl)-2H-phthalazin-1-one], 9 nM.
